Data on 3 compounds can be found in patent publication US20080200538A1, “Inhibition of Monocyte Survival, Differentiation, or Proliferation” (The Ohio State University Research Foundation, priority 2005, published 2008).

In data set [1] the test system is THP-1 cells. The data set can be described thus: Cell survival and apoptosis by calcein AM/PI staining. It counts as cell-based, human. On the procedure:
FIG. 2. Apigenin induces cell death in monocytic leukemia cells. THP-1 and U937 leukemia cells were treated for various lengths of time with 50 μM apigenin or left untreated (NT) and stained with calcein AM and PI as described in Material and Methods to evaluate the percentage of cell survival. (A) THP cells after 12 h cells treated with 50 μM apigenin or with DMSO (NT). (B) The percentage of cell survival represented by means ±SEM (N=3).
(§1) FIG. 4. Caspase-3 activation is required for apigenin-induced apoptosis. THP-1 cells were treated for 12 h with 50 μM apigenin alone or pretreated with 20 μM DEVD-FMK for 1 h prior to the addition of apigenin. (A) Cells were then stained with calcein AM and 24 PI and the percentage of apoptotic cells was determined. (B) Lysates from cells treated as described above were used to determined caspase-3 activity by the DEVD-AFC assay. All data represents means ±SEM (N=5).
(§2) FIG. 7. Apigenin induced p38 activation is not required for apoptosis. A. Cells were pretreated for 1 h prior to addition of 50 μM apigenin or DMSO (−) with 10 or 25 μM concentrations of SB203580 or DMSO (−) for 12 h. The percentage of apoptotic cells was determined by calcein AM with PI stained cells. Data represents means ±SEM (N=5 p>0.05). B. Lysates from the same treatments were used to determined caspase-3 activity by the DEVD-AFC assay. Data represents means ±SEM (N=5 p>0.05).
To investigate apoptosis, cells were plated at a density of 1×10^6 cells/well. After treatment, cells were collected and washed in PBS. Cells were then incubated in RPMI (no phenol red) and 1 μg/ml calcein AM for 30 min and 5×10−2 ng/ml propidium iodide (PI) for 5 min. Cells were washed twice and resuspended in PBS. Cells were viewed using a fluorescent microscope (Olympus, Melville, N.Y.). At least 200 cells were counted. Cells calcein AM positive (green) in the absence of PI (red) were considered alive while cells undergoing apoptosis are green with red. Number of green cells or green with red cells was counted over total number of cells (green alone and green with red) to express cell survival or apoptotic cell percentage respectively.

Data set [2] has as its system Akt. The data set can be described thus: Western blot of Akt phosphorylation and total Akt in THP-1 cells. Type of data set: cell-based, human. The note with it: THP-1, 10 or 25 μM SB203580 1 h prior to 50 μM apigenin for 3 h. On the procedure:
FIG. 5. Apigenin affects Akt phosphorylation. THP-1 cells were treated with 50 μM apigenin for different lengths of time. Lysates were separated by SDS-PAGE, transferred and immunoblotted with anti-phospho-Akt (pSer 473), anti-phospho-Akt (pThr 308), total Akt, and â-tubulin antibodies.
FIG. 6. Apigenin induces the activation of p38 and inactivation of Akt. A. THP-1 cells were treated with 50 μM apigenin for various lengths of time. Lysates were separated by SDS-PAGE, transferred and analyzed by immunoblots with anti-phospho-p38 (pp 38) and anti-total-p38 antibodies. B. […] Lysates were analyzed by immunoblotting with anti-phospho-Akt (pSer 473), anti-phospho-p38 (p-p38), and anti-total-p38 antibodies.
Extracts from 3×10^6 cells were prepared by incubating cells for 30 min on ice in lysis buffer (50 mM Tris, 10 mM EDTA 0.5% NP-40, 10 mM Na-glycerophosphate, 5 mM Na-pyrophosphate, 50 mM NaF, 1 mM orthovanadate, 1 mM DTT, 0.1 mM PMSF, 2 μg/ml of protease inhibitors: chymostatin, pepstatin, antipain, and leupeptin). Cell lysates were centrifuged (14,000×g for 10 min at 4° C.) and the supernatants were stored for at −70° C. for future analysis. Equal amounts of protein were loaded and separated by SDS-PAGE, transferred onto nitrocellulose membranes and probed with antibodies of interest followed by horseradish peroxidase conjugated secondary antibody and visualized by enhanced chemiluminescence (Amersham, Arlington Heights, Ill.). Phospho-Ser473-Akt, phospho-Thr308-Alt, total AKT, phospho-p38 and total p38 antibodies were obtained from Cell Signaling (Boston, Mass.). â-tubulin antibody was obtained from Upstate (Charlottesville, Va.).
For orientation: Immunoblotting shows a protein as a band on a membrane.

Data set [3] relates to caspase-3. Description: Caspase-3 activity, DEVD-AFC assay, THP-1 lysates. Type of data set: cell-based, human. On the procedure:
FIG. 3. Apigenin induces caspase activation in monocytic leukemia. THP-1 (top) and U937 (bottom) leukemia cells were treated for various lengths of time with 50 μM apigenin or DMSO (NT). (A and C) Caspase-9 activity was determined by the LEHDAFC assay. (B and D) Caspase-3 activity was determined by the DEVD-AFC assay. Data represents means ±SEM (N=3).
as §1, §2
For measurements of caspase activity, cells were plated at a density of 1.5×10^6 cells/well. After treatment, cells extracts were prepared as previously described (Doseff, A. I., Baker J. H., Bourgeois T. A. and Wewers M. D. (2003) Interleukin-4-induced zpoptosis entails caspase activation and suppression of extracellular signal-regulated kinase phosphorylation. Am. J. Resp. Cell Mol. Biol., 29, 367-374). […] Levels of released AFC were measured using Cytofluor 400 fluorimeter (Filters: excitation 400 nm, emission 508 nm; Perspective Co., Framingham, Mass.).

Data set [4] deals with p38. Description: Western blot of p38 phosphorylation in THP-1 cells. The note with it: THP-1, 10 or 25 μM SB203580 1 h prior to 50 μM apigenin for 3 h. It counts as cell-based, human.
Method: A. THP-1 cells were treated with 50 μM apigenin for various lengths of time. Lysates were separated by SDS-PAGE, transferred and analyzed by immunoblots with anti-phospho-p38 (pp 38) and anti-total-p38 antibodies. B. THP-1 cells were treated for 6 hr with 50 μM apigenin alone (lane 2), treated with the apigenin diluent (lane 1), pretreatred with 10 or 25 μM SB203580 for 1 hr prior to the addition of apigenin (lanes 3 and 4) or with the SB203580 inhibitor alone (lanes 5 and 6).
Extracts from 3×10^6 cells were prepared by incubating cells for 30 min on ice in lysis buffer (50 mM Tris, 10 mM EDTA 0.5% NP-40, 10 mM Na-glycerophosphate, 5 mM Na-pyrophosphate, 50 mM NaF, 1 mM orthovanadate, 1 mM DTT, 0.1 mM PMSF, 2 μg/ml of protease inhibitors: chymostatin, pepstatin, antipain, and leupeptin). Cell lysates were centrifuged (14,000×g for 10 min at 4° C.) and the supernatants were stored for at −70° C. for future analysis. Equal amounts of protein were loaded and separated by SDS-PAGE, transferred onto nitrocellulose membranes and probed with antibodies of interest followed by horseradish peroxidase conjugated secondary antibody and visualized by enhanced chemiluminescence (Amersham, Arlington Heights, Ill.). […]
Data set [5] has as its system U937 cells. The data set can be described thus: Cell viability assay (CellTiter 96 / MTT, A490). Type of data set: cell-based, human. The note with it: U937, 500 μM naringenin, 24 h; reduced to. As for the experimental part: (§3) FIG. 1. Effect of apigenin and naringenin in cell survival of cancer cells. (A) Structure of the flavonoids apigenin and naringenin. (B) THP-1, U937, A549, and MCF-7 cells were treated with various doses of apigenin or naringenin for 24 h. After the treatment, the percentage of cell proliferation was calculated as the ratio of treated cells to control cells as determined by the MTT method (A490). Data represents means ±SEM (N=9). […] Cells were plated at a density of 2×10^4 cells/well into 96-well plates and treated with flavonoids at indicated concentrations for 24 h. Absorbance at 490 nm (A490) was recorded using an ELISA plate reader (Bio-Tek ELx800, KC Junior, Winooski, Vt.).

In data set [6] the test system is THP-1 cells. Description: Cell viability assay (CellTiter 96 / MTT, A490). Type of data set: cell-based, human. The note with it: THP-1, 500 μM naringenin, 24 h; reduced to. On the procedure:
as §3

For data set [7], the system named is THP-1 cells.
For data set [8], the system named is A549 cells. The data set can be described thus: Cell viability assay (CellTiter 96 / MTT, A490). The note with it: A549, up to 500 μM naringenin, 24 h; reduced by. Type of data set: cell-based. On the procedure:
as §3

Data set [9] has as its system MCF-7 cells. Description: Cell viability assay (CellTiter 96 / MTT, A490). It counts as cell-based. The note with it: MCF-7, up to 500 μM naringenin, 24 h; reduced by. As for the experimental part:
as §3

Where [10] appears, read: THP-1, 20 μM DEVD-FMK 1 h prior to 50 μM apigenin for 12 h.

Consider `C[S+]([O-])c1ccc(-c2nc(-c3ccncc3)c(-c3ccc(F)cc3)[nH]2)cc1` (centres unmarked) [SB203580, reference compound], for which the “number of apoptotic cells induced by apigenin” value in data set [1] (THP-1, SB203580 (10 or 25 μM) 1 h prior to 50 μM apigenin, 12 h, vs apigenin alone, P>0.05) is “did not result in a reduction”. Further, the “Akt phosphorylation at Ser473” value in data set [2] is reported as “increase”. For the same compound, the caspase-3 activity entry in data set [3] (THP-1, SB203580 and 50 μM apigenin vs apigenin alone, P>0.05) is “similar”. Also, in [4], the “apigenin-induced p38 phosphorylation” value was “significantly reduced”.

Turning to `O=C1C[C@@H](c2ccc(O)cc2)Oc2cc(O)cc(O)c21` [naringenin, reference compound], the “cell proliferation (ratio of treated to control cells)” value in [5] and in data set [6] was 60% in each case. Besides, the “conversion to another chemical entity in treated cells” value in data set [7] is “neither one of these two compounds is significantly converted”. The “reduction of cell proliferation” value in data set [8] and in [9] was 20% each time.

For “DEVD-FMK: caspase-3 inhibitor obtained from Enzyme System Products [reference compound]”, in [1] (setting [10]), the apoptotic cells was less than 10%. In addition, in data set [3] (setting [10]), the “effect on apigenin-induced caspase-3 activity” value is recorded as “inhibited the apigenin-induced activation of caspase-3 to the levels observed in untreated cells”.
